Source: PMC10141580, “Cyclic Dichalcogenides Extend the Reach of Bioreductive Prodrugs to Harness Thiol/Disulfide Oxidoreductases: Applications to seco-Duocarmycins Targeting the Thioredoxin System” (ACS Central Science, 2023)
Values joined by “and” are separate entries in the source; they are usually repeats but may differ in a detail not shown here. Equal values may be shown once. Read-outs that look alike come from different tables or passages of the source.

System: panel of 140 standard cancer cell lines
Assay: ProliFiler-140 cancer cell line screen (CellTiterGlo, 72 h)
Format: cell-based
Protocol: Incubations were performed for 72 h before automated viability readout with CellTiterGlo (Figure 8).
End of Figure S11 (part 5 of 5): ProliFiler-140 cancer cell line screening for cytotoxicity of the prodrugs.
8-data-point dose response curves from CellTiter-Glo® viability readout.
ProliFiler-140 cell line panel part V

With COc1cc2cc(C(=O)N3C[C@@H](CCl)c4c3cc(OC(=O)N3CCN(C(=O)CCC(=O)N5CCN(C)CC5)[C@H]5CSSC[C@H]53)c3ccccc43)[nH]c2c(OC)c1OC [P-SS66C-CBI-TMI] the “Reductive Activation Index” value (KG-1 a (Blood)) was 5.16, the “Reductive Activation Index” value (Kato III (Stomach)) was 7.4 and the “Reductive Activation Index” value (LN229 (Brain)) was 5.44. For the same molecule, the IC50 (LOU-NH91, read-out: IC50 [M] (ProliFiler-140), LOU-NH91 (Lung)) was 3.5e-08 M, the “Reductive Activation Index” value (LnCap (Prostate)) was 33 and the “Reductive Activation Index” value (M07e (Blood)) was 4.26. For the same molecule, the IC50 (M-07e, read-out: IC50 [M] (ProliFiler-140), M07e (Blood)) was 3.25e-08 M, the “Reductive Activation Index” value (MCAS (Ovary)) was 5.9 and 5.91 and the “Reductive Activation Index” value (MDA MB 231 (Breast)) was 5.44. For the same molecule, the “Reductive Activation Index” value (MDA MB 435 (Skin)) was 8.6, the IC50 (MDA MB 435 (Skin); read-out: IC50 [M] (ProliFiler-140)) was 1.26e-07 M and the “Reductive Activation Index” value (MKN-1 (Stomach)) was 11.1. The “Reductive Activation Index” value (MKN-45 (Stomach)) was 5.93, the “Reductive Activation Index” value (Mia PaCA 2 (Pancreas)) was 4.38 and the “Reductive Activation Index” value (NALM-6 (Blood)) was 22.62 and 23. The “Reductive Activation Index” value (NCI-H82 (Lung)) was 8.5, the “Reductive Activation Index” value (NCI-H441 (Lung)) was 5.81 and the “Reductive Activation Index” value (NCI-H838 (Lung)) was 10. For the same molecule, the “Reductive Activation Index” value (NCI-H1563 (Lung)) was 15, the “Reductive Activation Index” value (NCI-H1573 (Lung)) was 12 and the “Reductive Activation Index” value (NCI-H1703 (Lung)) was 16. For the same molecule, the “Reductive Activation Index” value (NCI-H1838 (Lung)) was 11, the IC50 (NCI-H2110, read-out: IC50 [M] (ProliFiler-140), NCI-H2110 (Lung)) was 1.8e-08 M and the “Reductive Activation Index” value (NCI-N87 (Stomach)) was 15. For the same molecule, the “Reductive Activation Index” value (OCI-AML5 (Blood)) was 5.7 and 5.67, the “Reductive Activation Index” value (OCI-LY19 (Blood)) was 5.41 and the “Reductive Activation Index” value (OPM-2 (Blood)) was 25.37. For the same molecule, the “Reductive Activation Index” value (OV56 (Ovary)) was 2.79, the IC50 (OV56, read-out: IC50 [M] (ProliFiler-140), OV56 (Ovary)) was 7.25e-08 M and the “Reductive Activation Index” value (OVCAR-3 (Ovary)) was 13. For the same molecule, the “Reductive Activation Index” value (OVK18 (Ovary)) was 4.38, the IC50 (OVK18, read-out: IC50 [M] (ProliFiler-140), OVK18 (Ovary)) was 4.57e-08 M and the “Reductive Activation Index” value (PANC-1 (Pancreas)) was 6.9. For the same molecule, the “Reductive Activation Index” value (RERF-LC-Ad2 (Lung)) was 5.5 and 5.54, the IC50 (RERF-LC-Ad2, read-out: IC50 [M] (ProliFiler-140), RERF-LC-Ad2 (Lung)) was 1.4e-07 M and the “Reductive Activation Index” value (RL95-2 (Endometrium)) was 5.93. The “Reductive Activation Index” value (SCLC-21H (Lung)) was 6.16, the “Reductive Activation Index” value (SJSA-1 (Bone)) was 3.87 and the “Reductive Activation Index” value (SK-MEL-3 (Skin)) was 6.6. The “Reductive Activation Index” value (SK-N-FI (Brain)) was 4.91, the “Reductive Activation Index” value (SK-N-SH (Brain)) was 6.5 and the “Reductive Activation Index” value (SNU840 (Ovary)) was 1.11. For the same molecule, the “Reductive Activation Index” value (SNU-216 (Stomach)) was 19.98 and 20, the IC50 (SNU-216, read-out: IC50 [M] (ProliFiler-140), SNU-216 (Stomach)) was 9.22e-08 M and the IC50 (SNU-840, read-out: IC50 [M] (ProliFiler-140), SNU840 (Ovary)) was 6.29e-08 M. The “Reductive Activation Index” value (SU-DHL-5 (Blood)) was 19 and 19.50, the “Reductive Activation Index” value (SW480 (Colon)) was 6.01 and the “Reductive Activation Index” value (SW620 (Colon)) was 4.55. For the same molecule, the “Reductive Activation Index” value (SW948 (Colon)) was 4.75, the “Reductive Activation Index” value (Saos-2 EC (Bone)) was 3.52 and the “Reductive Activation Index” value (SiHa (Ovary)) was 5.41. The “Reductive Activation Index” value (T84 (Colon)) was 5.69 and 5.7, the “Reductive Activation Index” value (T-47D (Breast)) was 11 and the “Reductive Activation Index” value (U2OS (Bone)) was 4.10. The “Reductive Activation Index” value (U87MG (Brain)) was 8.0, the “Reductive Activation Index” value (U118MG (Brain)) was 2.11 and the “Reductive Activation Index” value (U251MG (Brain)) was 17. The “Reductive Activation Index” value (U-937 (Blood)) was 6.40, the “Reductive Activation Index” value (ZR-75-1 (Breast)) was 4.62 and 4.6 and the IC50 (read-out: IC50 [M] (ProliFiler-140), BEN (Lung)) was 5.3e-08 M. It also gave an IC50 (read-out: IC50 [M] (ProliFiler-140), H4 (Brain)) of 1.39e-08 M, an IC50 (read-out: IC50 [M] (ProliFiler-140), Hep3B2.1-7 (Liver)) of 1.7e-07 M and an IC50 (read-out: IC50 [M] (ProliFiler-140), J82 (Bladder)) of 9.55e-08 M. The IC50 (read-out: IC50 [M] (ProliFiler-140), KG-1 (Blood)) was 1.92e-07 M, the IC50 (read-out: IC50 [M] (ProliFiler-140), LP-1 (Blood)) was 1e-07 M and the IC50 (read-out: IC50 [M] (ProliFiler-140), MCAS (Ovary)) was 1.4e-07 M. For the same molecule, the IC50 (read-out: IC50 [M] (ProliFiler-140), PC3 (Prostate)) was 4.01e-08 M, the IC50 (read-out: IC50 [M] (ProliFiler-140), PC-9 (Lung)) was 1.4e-08 M and the IC50 (read-out: IC50 [M] (ProliFiler-140), RERF-LC-MS (Lung)) was 3.07e-08 M. It also gave an IC50 (read-out: IC50 [M] (ProliFiler-140), RKO (Colon)) of 2.13e-08 M, an IC50 (read-out: IC50 [M] (ProliFiler-140), SCH (Stomach)) of 1.5e-08 M and an IC50 (read-out: IC50 [M] (ProliFiler-140), T84 (Colon)) of 1.6e-07 M. For the same molecule, the IC50 (read-out: IC50 [M] (ProliFiler-140); 786-O (Kidney)) was 2.9e-08 M, the IC50 (read-out: IC50 [M] (ProliFiler-140); A375 (Skin)) was 5.5e-08 M and the IC50 (read-out: IC50 [M] (ProliFiler-140); A427 (Lung)) was 4.42e-08 M. It also gave an IC50 (read-out: IC50 [M] (ProliFiler-140); A431 (Skin)) of 2e-08 M, an IC50 (read-out: IC50 [M] (ProliFiler-140); A498 (Kidney)) of 9.4e-08 M and an IC50 (read-out: IC50 [M] (ProliFiler-140); A549 (Lung)) of 3.03e-08 M. The IC50 (read-out: IC50 [M] (ProliFiler-140); A2058 (Skin)) was 1.09e-08 M, the IC50 (read-out: IC50 [M] (ProliFiler-140); A2780 (Ovary)) was 8.13e-09 M and the IC50 (read-out: IC50 [M] (ProliFiler-140); AsPC-1 (Pancreas)) was 2.62e-07 M. The IC50 (read-out: IC50 [M] (ProliFiler-140); BEN (Lung)) was 5.35e-08 M and the IC50 (read-out: IC50 [M] (ProliFiler-140); BT-20 (Breast)) was 1.22e-07 M.
